Data published in patent US9884041B2 (YONSEI […], INC., priority 2010, dated 2018).

What was measured:
[1] = tested on: C57BL/6J mice; assay: Body weight, food intake and visceral fat-pad weights of mice fed test diets (HFD-induced obesity); type: in vivo; conditions: HFD with 0.05% piperonal, 10 weeks
Description: (§1) The obesity-inducing control diet used in the test was high-fat diet (HFD: 40% fat calorie, 17 g lard+3% corn oil/100 g diet). […] The normal diet (ND) was prepared under AIN-76 rodent diet (American Institute of Nutrition, Report of the American Institute of Nutrition ad hoc committee on standards for nutritional studies. J. Nutr. 107: 1340-1348, 1977) (see Table 1). Piperonal was purchased from Sigma-Aldrich.
(§2) 5-week-old male C57BL/6J mice (Orient, Korea) were accustomed to the laboratory environment for 1 week while feeding solid feed. Then, they were randomly divided into normal diet, high-fat diet and test groups and bred for a total of 10 weeks. The diet was given between 10 and 11 a.m. every day together with water. Food intake was measured every day and body weight was measured once a week. In order to avoid transient body weight increase after feed intake, body weight was measured 2 hours after removing the feed. After fasting the test animal for at least 12 hours and anesthetizing with diethyl ether, blood, liver and visceral fat (epididymal fat, perirenal fat, mesenteric fat and retroperitoneal fat) were taken and weighed after washing with 0.1 M PBS (pH 7.4). Blood taken from the abdominal aorta was centrifuged at 1000×g for 15 minutes for the separation of plasma.
The food efficiency ratio was calculated by dividing the total body weight gain during the experimental period (g) by the total food intake (g) (FIGS. 1 and 2).

[2] = tested on: C57BL/6J mice; assay: Plasma lipid and glucose levels of mice fed test diets; type: in vivo; conditions: HFD with 0.05% piperonal, 10 weeks
Description: as §1, §2
After 10 weeks of breeding, total cholesterol, HDL-cholesterol, triglyceride and glucose levels in the plasma and lipid levels in the liver tissue were measured as follows. Total cholesterol, HDL-cholesterol, triglyceride, free fatty acid and glucose levels in the plasma were measured twice for each using a commercially available kit (Bio Clinical System). LDL+VLDL cholesterol levels in the blood were calculated by subtracting HDL-cholesterol levels from the total cholesterol levels.

[3] = tested on: C57BL/6J mice; assay: Liver weights, liver lipid levels and liver function indicators (ALT, AST) of mice fed test diets; type: in vivo; conditions: HFD with 0.05% piperonal, 10 weeks
Description: as §1, §2
Lipids were extracted from the liver tissue according to Folch et al.'s method (Folch J et al., J Biol Chem. 226: 497-509 (1957)). After adding 1 mL of distilled water to 0.25 g of liver tissue, the liver tissue was homogenized using a Polytron homogenizer (IKA-Werke GmbH & Co., Ultra-Turrax, Staufen, Germany). After adding 5 mL of chloroform:methanol solution (2:1, v/v) to the homogenate and mixing well, the mixture was centrifuged at 1000×g for 10 minutes. After adding 2 mL of chloroform:methanol solution (2:1, v/v) again to the supernatant, the same procedure was repeated to completely separate the lipid components of the liver. After adding 3 mL of chloroform:methanol:0.05% CaCl2 (3:48:47, v/v/v) solution to the remaining pellets and mixing well for 1 minute, followed by centrifugation at 1000×g for 10 minutes, the resulting pellets were completely dried with nitrogen gas. The dried lipids were dissolved in 1 mL of methanol and then analyzed.
The same kit (Bio Clinical System) as that used for the plasma analysis was used to measure the triglyceride, cholesterol and free fatty acid levels of the liver tissue.
The activity of ALT (alanine aminotransferase) and AST (aspartate aminotransferase) used as liver function indicator were measured twice for each using a commercially available kit (Bio Clinical System, Korea).

[4] = tested on: UCP1; assay: RT-PCR analysis of UCP1 gene expression in mouse visceral fat tissues; type: in vivo, mice; conditions: mRNA by RT-PCR, normalized to GAPDH, to the similar level to the ND group
Excerpt: (§3) FIG. 7 represents the expression profiles of UCPs genes in the visceral fat tissues of mice. The left panel represents images of RT-PCR analysis results for UCP1 and UCP3, and the right panel represents relative expression levels of these genes. The data were normalized to GAPDH mRNA levels and expressed as relative values to those from ND mouse. The results are represented as mean±SEM (standard error) of values obtained from RNA sample of eight mice with three independent experiments. The characters above the bars indicate significant difference in dietary groups by one-way analysis of variance (ANOVA) test and Duncan's multiple range test (P<0.05).
(§4) After adding 1 mL of Trizol agent per 0.1 g of visceral fat tissues, the mixture was homogenized and centrifuged at 12,000×g for 10 min at 4° C. The supernatant was transferred to a new tube and 200 μl of chloroform was added to the tube, followed by vortexing. The same procedure was repeated twice and then the supernatant was transferred to a new tube, followed by addition of isopropanol and the supernatant at 1:1 ratio. […] The RNA sample concentration was measured at a wavelength of 260 nm and 280 nm using a UV/VIS spectrophotometer (Beckman coulter, DU730) and the integrity of RNA sample was verified by agarose gel electrophoresis. […]

[5] = tested on: UCP3; assay: RT-PCR analysis of UCP3 gene expression in mouse visceral fat tissues; type: in vivo, mice; conditions: mRNA by RT-PCR, normalized to GAPDH, to the similar level to the ND group
Excerpt: as §3, §4

[6] = tested on: C/EBPα; assay: RT-PCR analysis of C/EBPα gene expression in mouse liver tissues; type: in vivo, mice; conditions: mRNA by RT-PCR, vs HFD, to levels similar for the ND
Excerpt: (§5) FIG. 8 represents the expression profiles of genes relating to lipogenesis in mice liver tissues. The left panel represents images of RT-PCR analysis results for C/EBPα, PPARγ2 and aP2, and the right panel represents relative expression levels of these genes. The data were normalized to GAPDH mRNA levels and expressed as relative values to those from ND mouse. The results are represented as mean±SEM (standard error) of values obtained from RNA sample of eight mice with three independent experiments. The characters above the bars indicate significant difference in dietary groups by one-way analysis of variance (ANOVA) test and Duncan's multiple range test (P<0.05).
as §4, with “liver” for “visceral fat”

[7] = tested on: PPARγ2; assay: RT-PCR analysis of PPARγ2 gene expression in mouse liver tissues; type: in vivo, mice; conditions: mRNA by RT-PCR, vs HFD, to levels similar for the ND
Excerpt: as §5
as §4, with “liver” for “visceral fat”

[8] = tested on: aP2; assay: RT-PCR analysis of aP2 gene expression in mouse liver tissues; type: in vivo, mice; conditions: mRNA by RT-PCR, vs HFD, to levels similar for the ND
Excerpt: as §5
as §4, with “liver” for “visceral fat”

[9] = tested on: TNF-α; assay: RT-PCR analysis of TNF-α gene expression in mouse liver tissues; type: in vivo, mice; conditions: mRNA by RT-PCR
Excerpt: as §5, with “9” for “8”, “inflammation” for “lipogenesis”, “TNFα” for “C/EBPα, PPARγ2”, “IL-6,” for “aP2,”
as §4, with “liver” for “visceral fat”

[10] = tested on: IL-6; assay: RT-PCR analysis of IL-6 gene expression in mouse liver tissues; type: in vivo, mice; conditions: mRNA by RT-PCR
Excerpt: as §5, with “9” for “8”, “inflammation” for “lipogenesis”, “TNFα” for “C/EBPα, PPARγ2”, “IL-6,” for “aP2,”
as §4, with “liver” for “visceral fat”

[11] = tested on: cancinogenesis animal model; conditions: in vivo; cited from earlier work
[12] = tested on: patients; conditions: sense of smell stimulated through nasal cannula during MRI for cancer diagnosis; cited from earlier work
[13] = tested on: rats; conditions: cited from earlier work
[14] = tested on: human; conditions: human took 10 g of piperonal; cited from earlier work
[15] = tested on: rats; conditions: feed containing 0.1% piperonal and 0.5% piperonal, 2 years; cited from earlier work

O=Cc1ccc2c(c1)OCO2 [piperonal, 1,3-benzodioxole-5-carboxaldehyde]
decrease of body weight gain as compared to HFD [1]: 19%
reduced weight of epididymal fat-pad as compared to HFD [1]: 11%
reduced weight of mesenteric fat-pad as compared to HFD [1]: 20%
reduced weight of perirenal fat-pad as compared to HFD [1]: 35%
reduced weight of retroperitoneal fat-pad as compared to HFD [1]: 8%
reduction of total visceral fat weight, POD group vs HFD group ([1]; P<0.001): 15%
daily food intake ([1]; vs HFD): no significant change
lower atherogenic indices as compared to HFD group [2]: 17%
lower plasma level of free fatty acid as compared to HFD group [2]: 17%
lower plasma level of total cholesterol as compared to HFD group [2]: 14%
lower plasma level of triglyceride as compared to HFD group [2]: 21%
reduction of fasting blood sugar level as compared to HFD [2]: 27%
lower plasma level of LDL+VLDL cholesterol as compared to HFD group ([2]; total cholesterol minus HDL-cholesterol): 18%
decrease of absolute organ weight of liver as compared to HFD [3]: 23%
decreased level of cholesterol in liver tissue as compared to HFD [3]: 39%
decreased level of free fatty acid in liver tissue as compared to HFD [3]: 27%
decreased level of triglyceride in liver tissue as compared to HFD [3]: 13%
decreased plasma activity of ALT as compared to HFD group [3]: 27%
decreased plasma activity of AST as compared to HFD group [3]: 15%
HFD-induced decrease in expression of UCP1 gene [4]: significantly reversed
HFD-induced decrease in expression of UCP3 gene [5]: significantly reversed
expression of C/EBPα gene [6]: significantly decreased
expression of PPARγ2 gene [7]: significantly decreased
expression of aP2 gene [8]: significantly decreased
HFD-induced elevation in the expression of TNF-α [9]: significantly reversed
HFD-induced elevation in the expression of IL-6 [10]: significantly reversed
effect in carcinogenesis animal model [11]: cancer inhibitory effect
anxiety of patients during MRI [12]: relief from anxiety
LD50 [13]: more than 2,700 mg/kg
toxicity in human [14]: no toxicity
toxicity in rats [15]: no toxicity
